According to patent US20120135064A1, “CONJUGATED NANODELIVERY VEHICLES” (Northeastern University, priority 2009, published 2012):

What was measured:
HPAF-II pancreatic tumor = experiment: In vivo therapeutic study, subcutaneous HPAF-II pancreatic tumor model, tumor volume; parameters: species or system nude mice; details: HPAF-II tumors; injections days 1, 4, 7, 10
Method: Tumors were grown by subcutaneously injecting 2×10^6 HPAF-II cells in 0.1 ml of cell culture media. Daily tumor volume measurements were taken using an electronic digital caliper (Control Company, Friendswood, Tex.). The equation a^2×b×0.52 was used to calculate the tumor volume, where ‘a’ and ‘b’ corresponded to the longer and shorter diameters, respectively. […] Animals received injections of the various formulations when the tumors reached a size of about 150 mm^3; the untreated control group received no injections. […] Day 1 injection was 18 μg of 2-methoxyestradiol for both PCL formulations. Day 4, 7, and 10 injections corresponded to 24 μg of 2-methoxyestradiol for both formulations. […] The end of the study was three days after the fourth injection, at which point the mice were anesthetized with ketamine/xylazine.

[1] = test system: Capan-1, HPAF-II, PANC-1, MS1-VEGF and HMEC-1 cells; experiment: Bevacizumab cell toxicity assay (SRB); type: cell-based; details: 24 h exposure; media containing or free of VEGF
Method: Cells were seeded at 1×10^4 cells/well in 1 ml volumes in a 48-well plate. The cells were incubated for 24 h in a 37° C. cell culture incubator set at CO2 5%. […] After 24 h of incubation the SRB assay was performed (as described in, e.g., Dandamudi et al., Biochim. Biophys. Acta 1768:427-438 (2007); Skehan et al., J. Natl. Cancer Inst. 82:1107-1112 (1990); and Kalra et al., Pharm. Res. 23:2809-2817 (2006)). Briefly, the plates were washed twice with 1 ml/well of 1×PBS. Then, […] trichloracetic acid 50% solution (TCA; […]) was added to each well and the plates were stored at 4° C. for 1 h. The plates were thoroughly washed with distilled H2O five times and then 200 μl of SRB 0.4% was added to each well The plates were stored at room temperature for 30 min and then washed 4-6 times thoroughly with acetic acid 1% to remove excess SRB and air dried. 1 ml of […] was added to each well to solubilize the SRB and fluorescence intensity was measured at excitation wavelength of 540/20 and emission wavelength of 590/20 nm using FLX 800 Fluorescence Microplate Reader (Biotech instruments Inc., Winooski, Vt.). All groups were compared with untreated cells for statistical analysis.

Substance: bevacizumab: anti-VEGF antibody bevacizumab (Avastin, Roche)
- earliest day at which tumor response / significant benefit was seen (HPAF-II pancreatic tumor): 3 days
- nontoxic concentration (maximum amount of antibody without altering the growth potential of the cells) [1]: 500 ng/mL
